Results as given in patent US12655116B2, “Substituted isophthalic acid diamides” (Bayer Aktiengesellschaft, priority 2020, dated 2026).

Legend:
PHBPU [1] = test: Post-emergence herbicidal action against PHBPU; type: in vivo, Pharbitis purpurea
In short: (§1)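 Visual % rating (0% = as untreated, 100% = dead) ~3 wk after spraying one-leaf-stage plants grown in sandy loam; WP/EC in water at 600–800 l/ha, 0.2% wetting agent.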

AMARE [2] = test: Post-emergence herbicidal action against AMARE; type: in vivo, Amaranthus retroflexus; conditions: 20 g/ha, visual assessment about 3 weeks after treatment, 100% = plants have died, 0% = like control plants
In short: as §1

ECHCG [3] = test: Post-emergence herbicidal action against ECHCG; type: in vivo, Echinochloa crus-galli
In short: as §1

DIGSA [4] = test: Post-emergence herbicidal action against DIGSA; type: in vivo, Digitaria sanguinalis
In short: as §1

POLCO [5] = test: Post-emergence herbicidal action against POLCO; type: in vivo, Polygonum convolvulus; conditions: dosage 20 g/ha
In short: as §1

VIOTR [6] = test: Pre-emergence herbicidal action against VIOTR; type: in vivo, Viola tricolor
In short: (§2)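 Sandy loam pots, seeds covered with soil, then surface-treated with WP or EC formulations at 600–800 l/ha water plus 0.2% wetting agent. Greenhouse, 3 weeks. Percent damage vs untreated controls.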

ALOMY [7] = test: Post-emergence herbicidal action against ALOMY; type: in vivo, Alopecurus myosuroides; conditions: visual assessment about 3 weeks after treatment vs untreated controls
In short: as §1

PHBPU [8] = test: Pre-emergence herbicidal action against PHBPU; type: in vivo, Pharbitis purpurea
In short: as §2

LOLRI = test: Pre-emergence herbicidal action against LOLRI; type: in vivo, Lolium rigidum; conditions: 80 g/ha
In short: as §2

MATIN = test: Pre-emergence herbicidal action against MATIN; type: in vivo, Matricaria inodora
In short: as §2

SETVI [9] = test: Pre-emergence herbicidal action against SETVI; type: in vivo, Setaria viridis
In short: as §2

DIGSA [10] = test: Pre-emergence herbicidal action against DIGSA; type: in vivo, Digitaria sanguinalis
In short: as §2

AMARE [11] = test: Pre-emergence herbicidal action against AMARE; type: in vivo, Amaranthus retroflexus
In short: as §2

VERPE = test: Post-emergence herbicidal action against VERPE; type: in vivo, Veronica persica; conditions: 20 g/ha
In short: as §1

ABUTH [12] = test: Pre-emergence herbicidal action against ABUTH; type: in vivo, Abutilon theophrasti
In short: as §2

AVEFA [13] = test: Pre-emergence herbicidal action against AVEFA; type: in vivo, Avena fatua
In short: as §2

VIOTR [14] = test: Post-emergence herbicidal action against VIOTR; type: in vivo, Viola tricolor
In short: as §1

ALOMY [15] = test: Pre-emergence herbicidal action against ALOMY; type: in vivo, Alopecurus myosuroides
In short: as §2

SETVI [16] = test: Post-emergence herbicidal action against SETVI; type: in vivo, Setaria viridis
In short: as §1

AVEFA [17] = test: Post-emergence herbicidal action against AVEFA; type: in vivo, Avena fatua; conditions: 20 g/ha, visual assessment about 3 weeks after treatment, 100% = plants have died, 0% = like control plants
In short: as §1

POLCO [18] = test: Pre-emergence herbicidal action against POLCO; type: in vivo, Polygonum convolvulus; conditions: dosage 80 g/ha
In short: as §2

ABUTH [19] = test: Post-emergence herbicidal action against ABUTH; type: in vivo, Abutilon theophrasti; conditions: dosage 20 g/ha, visual assessment about 3 weeks after treatment vs untreated controls
In short: as §1

ECHCG [20] = test: Pre-emergence herbicidal action against ECHCG; type: in vivo, Echinochloa crus-galli; conditions: 80 g/ha
In short: as §2

[21] = 80 g/ha, scored visually after 3 weeks vs untreated controls (100% = plants have died, 0% = like control plants)
[22] = 20 g/ha, scored visually after 3 weeks, 100% = plants have died, 0% = like control plants

## Cn1nnnc1NC(=O)c1ccc(C(F)(F)F)c(C(=O)NCC(F)F)c1Br [Example 1-212]
PHBPU [1]; dosage 5 g/ha
  Post-emergence action against PHBPU in %: 80%
PHBPU [1]; dosage 20 g/ha
  Post-emergence action against PHBPU in %: 90%
AMARE [2]
  Post-emergence action at 20 g/ha against AMARE in %: 100%
ECHCG [3]; dosage 5 g/ha
  Post-emergence action against ECHCG in %: 80%
ECHCG [3]; dosage 20 g/ha
  Post-emergence action against ECHCG in %: 80%
DIGSA [4]; 5 g/ha
  Post-emergence action against DIGSA in %: 90%
DIGSA [4]; 20 g/ha
  Post-emergence action against DIGSA: 100%
POLCO [5]
  Post-emergence action against POLCO in %: 100%
VIOTR [6]; dosage 20 g/ha
  Pre-emergence action against VIOTR in %: 100%
VIOTR [6]; dosage 80 g/ha
  Pre-emergence action against VIOTR in %: 100%
ALOMY [7]; dosage 5 g/ha
  Post-emergence action against ALOMY in %: 80%
ALOMY [7]; dosage 20 g/ha
  Post-emergence action against ALOMY in %: 90%
PHBPU [8]; dosage 20 g/ha
  Pre-emergence action against PHBPU in %: 80%
PHBPU [8]; dosage 80 g/ha
  Pre-emergence action against PHBPU in %: 80%
LOLRI
  Pre-emergence action against LOLRI in %: 80%
MATIN; dosage 20 g/ha
  Pre-emergence action against MATIN in %: 90%
MATIN; dosage 80 g/ha
  Pre-emergence action against MATIN in %: 100%
SETVI [9]; dosage 20 g/ha
  Pre-emergence action against SETVI in %: 80%
SETVI [9]; dosage 80 g/ha
  Pre-emergence action against SETVI in %: 100%
DIGSA [10]; dosage 20 g/ha
  Pre-emergence action against DIGSA in %: 100%
DIGSA [10]; dosage 80 g/ha
  Pre-emergence action against DIGSA in %: 100%
AMARE [11]; 20 g/ha, scored visually after 3 weeks vs untreated controls, 100% = plants have died, 0% = like control plants
  Pre-emergence action against AMARE in %: 100%
AMARE [11]; [21]
  Pre-emergence action against AMARE in %: 100%
VERPE
  Post-emergence action against VERPE in %: 80%
ABUTH [12]; [21]
  Pre-emergence action against ABUTH (herbicidal activity): 100%
ABUTH [12]; dosage 20 g/ha, scored visually after 3 weeks vs untreated controls, 100% = plants have died, 0% = like control plants
  Pre-emergence action against ABUTH (herbicidal activity in percent): 80%
AVEFA [13]; [22]
  Pre-emergence action against AVEFA: 80%
AVEFA [13]; 80 g/ha, pre-emergence
  Pre-emergence action against AVEFA in %: 90%
VIOTR [14]; 5 g/ha
  Post-emergence action against VIOTR in %: 80%
VIOTR [14]; 20 g/ha
  Post-emergence action against VIOTR in %: 90%
ALOMY [15]; [22]
  Pre-emergence action against ALOMY: 100%
ALOMY [15]; 80 g/ha, pre-emergence, scored visually after 3 weeks vs untreated controls (100% = plants have died, 0% = like control plants)
  Pre-emergence action against ALOMY (herbicidal activity): 100%
SETVI [16]; dosage 5 g/ha
  Post-emergence action against SETVI in %: 80%
SETVI [16]; dosage 20 g/ha
  Post-emergence action against SETVI in %: 90%
AVEFA [17]
  Post-emergence action at 20 g/ha against AVEFA in %: 80%
POLCO [18]
  Pre-emergence action against POLCO in %: 80%
ABUTH [19]
  Post-emergence action against ABUTH in %: 80%
ECHCG [20]
  Pre-emergence action against ECHCG in %: 100%
